Values of other authors, collected in patent US9149493B2, “Compositions for bowel cleansing and use thereof” (ALFA WASSERMANN SPA, priority 2011, dated 2015).

Conditions: administered alone; eliminated unchanged in urine

Substance: citric acid and sodium citrate [citrates]
- absorption of citrates in the small intestine: almost entirely absorbed
